Test results taken from PMC4736399 (Oxidative Medicine and Cellular Longevity, 2016).
Several values for one entry are separate records, joined by “and”; a condition that tells them apart may be missing. Equal values may be shown once. Where a name gives a salt, the structure may show the parent alone.

How the values were obtained:
SSAO = target: T1, SSAO (Homo sapiens, UniProt Q16853); test: Amplex Red fluorometric detection of benzylamine-induced hydrogen peroxide release in human adipose tissue homogenates; assay type: biochemical; conditions: for effect on benzylamine-induced H2O2 release: tested agent at 1 mM, 1 mM benzylamine, hAT homogenates, Amplex Red
T1 construct: benzylamine oxidation by hAT preparations, naturally rich in SSAO/VAP-1; from tissue; host or cells: human subcutaneous abdominal adipose tissue (hAT), crude homogenate
T1 sequence (Q16853 1-763): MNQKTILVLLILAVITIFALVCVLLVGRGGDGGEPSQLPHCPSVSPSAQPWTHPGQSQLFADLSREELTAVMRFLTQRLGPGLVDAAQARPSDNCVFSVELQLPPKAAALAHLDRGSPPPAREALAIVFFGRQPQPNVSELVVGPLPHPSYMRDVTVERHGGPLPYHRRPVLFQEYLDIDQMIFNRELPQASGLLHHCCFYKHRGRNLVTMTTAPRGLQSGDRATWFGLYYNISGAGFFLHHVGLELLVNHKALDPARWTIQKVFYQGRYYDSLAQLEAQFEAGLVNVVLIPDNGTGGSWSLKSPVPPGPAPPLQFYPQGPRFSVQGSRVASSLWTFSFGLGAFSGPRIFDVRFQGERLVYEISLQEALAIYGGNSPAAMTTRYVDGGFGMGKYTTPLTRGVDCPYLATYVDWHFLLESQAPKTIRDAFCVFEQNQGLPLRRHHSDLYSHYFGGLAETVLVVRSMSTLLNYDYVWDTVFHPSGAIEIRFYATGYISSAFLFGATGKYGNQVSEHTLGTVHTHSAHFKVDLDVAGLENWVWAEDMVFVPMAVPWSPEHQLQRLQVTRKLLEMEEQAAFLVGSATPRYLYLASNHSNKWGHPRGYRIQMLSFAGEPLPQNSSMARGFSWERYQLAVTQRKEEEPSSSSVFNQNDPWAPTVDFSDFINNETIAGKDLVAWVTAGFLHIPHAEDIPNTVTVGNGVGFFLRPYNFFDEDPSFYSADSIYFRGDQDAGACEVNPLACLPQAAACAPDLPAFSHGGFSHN
Experimental: (§1) Oxidase activity was measured using the fluorescent probe Amplex Red (10-acetyl-3,7-dihydrophenoxazine) designed for the detection of hydrogen peroxide in biological milieu. Assays were performed accordingly to our previous descriptions, which corresponded to slight modifications from the adaptation of such fluorometric method for MAO activity determination. Briefly, hydrogen peroxide release was quantified owing to a chromogenic mixture containing 40 μM Amplex Red and 4 U/mL horseradish peroxidase and to the parallel use of hydrogen peroxide standard solutions ranging from 0.05 to 5 μM (final concentrations). Thawed hAT samples were homogenized in 200 mM phosphate buffer (pH 7.4) during 30 sec with a homogenizer Tissue Master-125 (Omni International, Kennesaw, GA, USA) just prior to the determination of their amine oxidase activity, as previously reported, except that no antiprotease cocktail was added. Homogenates were distributed in 96-well dark microplates (at 50 ± 5 μg protein/well) and incubated at 37°C in the dark for at least 30 min in 200 μL final volume after a 30 min preincubation without (control) or with 1 mM pargyline or semicarbazide to inhibit MAO or SSAO activity, respectively, or even with both reference inhibitors to abolish all AO activity. All phenolic compounds tested for their inhibitory properties were also added during this preincubation step. Tyramine or benzylamine was added to the medium in order to obtain 1 mM concentration and to serve as substrates for AO activities, as already stated.
(§2) Spontaneous hydrogen peroxide formation by homogenates of thawed material was also quantified without any addition of exogenous amine or inhibitor and defined as basal release. The influence of chemical compounds or biochemical agents on the fluorescence readouts generated by the hydrogen peroxide standard curve was also performed without any presence of hAT in a set of experiments called “without biological material.” In all cases, fluorescence data (ex/em: 540/590 nm) were collected on a Fluoroskan Ascent plate reader (ThermoLabsystems, Finland).
Fluorescence readouts after 30 min incubation were substracted from corresponding values at t0 and net increase was set at 100% for 1 mM benzylamine alone. (a) Pargyline (MAO, dark squares) or semicarbazide (SSAO inhibitor, open squares) was present at indicated final concentrations, while their combination was tested at 1 mM (P + S, black triangle). Mean ± SEM of at least 6 homogenates. (b) The phenolic compounds were tested in parallel at the indicated final concentrations. Means ± SEM of 8 to 12 homogenates.

SSAO/VAP-1 = target: T2, SSAO/VAP-1 (Homo sapiens, UniProt Q16853); test: Radiochemical assay of [14C]-benzylamine oxidation by hAT homogenates; assay type: biochemical; conditions: 1 mM [14C]-benzylamine, 30 min, up to 1 mM
T2 construct: benzylamine oxidation by hAT preparations, naturally rich in SSAO/VAP-1; from tissue; host or cells: human subcutaneous abdominal adipose tissue (hAT), crude homogenate
T2 sequence (Q16853 1-763): T1 sequence (Q16853 1-763)
Experimental: (§3) Samples of adipose tissue were homogenized as described above. 50 μL of crude homogenates were then incubated for 30 min at 37°C in 200 μL of 200 mM phosphate buffer in the presence of radiolabelled amine after 30 min preincubation without or with inhibitor(s). MAO-dependent oxidation was defined as sensitive to inhibition by 1 mM pargyline, whereas SSAO-dependent oxidation was abolished by 1 mM semicarbazide. Assays were started by addition of the labelled substrate and stopped by adding 50 μL of 4 M HCl. Reaction products of amine oxidation were extracted by 1 mL of organic solvent (toluene/ethyl acetate, 1/1 v/v), according to Tipton's method. Then, 0.7 mL aliquots of the organic phase were counted for radioactivity. Maximal velocity and optimal conditions for determination of amine oxidase activities have been already detailed for human adipocytes, cultured preadipose cells, or hAT homogenates. Thus, inhibition studies were performed only under conditions reaching maximal oxidation velocity, that is, corresponding to the use of tyramine or benzylamine isotopic dilutions giving 1 mM final concentration and reaching approximately 640000 dpm/50 μL for [^14C]-tyramine (provided either by PerkinElmer, Evry, France, or by Sigma-Aldrich) or 200000 dpm/50 μL for [^14C]-benzylamine (NEC 835050UC purchased from PerkinElmer). The radioactivity extracted in the organic phase at time 0 (t0) represented less than 0.5% of the total radioactivity/tube of each labelled amine and was subtracted to all counts with tyramine and benzylamine oxidation without inhibitor averaging 14160 ± 5620 dpm (n = 16) and 15800 ± 1770 dpm (n = 12), respectively. These absolute values, which varied substantially from one individual to another, were set as 100% reference in each subject for the calculation of percentages of inhibition.
Figure 6 Influence of phenolic compounds and MAO inhibitors or SSAO inhibitors on benzylamine oxidation by hAT. (a) Thirty-minute oxidation of 1 mM [^14C]-benzylamine by homogenates generated amounts of radiolabelled benzaldehyde that were separated by extraction as described in Materials and Methods and set at 100% signal (control), while 0% corresponded to the extractible radioactivity at t0. The reference MAO inhibitors (pargyline) or SSAO (semicarbazide) inhibitors were present, separately or in combination at 1 mM, […] before the addition of the radiolabelled substrate. […] Each point is the mean ± SEM of 8 homogenates.

human adipocytes = test: [3H]-2-deoxy-glucose uptake in freshly isolated adipocytes; assay type: cell-based; conditions: phenolic compound 100 μM (P + S 1 mM each), benzylamine stimulation, 45 min incubation
Experimental: To determine glucose transport activity, hAT was grossly minced and digested at 37°C under shaking in 20 mL of Krebs-Ringer medium containing 0.015 mg/mL liberase (type TM, Roche Diagnostics), 15 mM sodium bicarbonate, 10 mM HEPES, and 3.5% bovine serum albumin. Buoyant adipocytes were separated by filtration through nylon screen and carefully washed in the same medium at pH 7.4 without liberase to obtain adipocyte suspensions as already described. Freshly isolated adipocytes were incubated for 45 min with the tested agents just before [^3H]-2-deoxy-glucose uptake assays (PerkinElmer) performed in 10 min at 37°C in plasticware as already described.
Figure 9 Effects of phenolic compounds, benzylamine, and insulin on glucose transport in human adipocytes. Freshly isolated adipocytes were incubated for 45 min without (basal) or with insulin 100 nM (ins.) or with benzylamine and phenolic compounds at the indicated doses. Then 2-DG uptake assays were performed on 10 min as detailed in Section 2. […] Basal, insulin-stimulated, or benzylamine-stimulated 2-DG uptake was tested without (no addition, open columns) or with pargyline + semicarbazide at 1 mM each (P + S, dark columns). Mean ± SEM of 39 cases. Different from basal alone at ^### P < 0.001. Different from benzylamine alone at ^∗∗∗ P < 0.001. (b) Insulin was used as the agent of reference for maximal transport stimulation, set at 100%. Benzylamine was tested at 1 mM alone (control, open column) or in the presence of 100 μM of the indicated phenolic compounds. Mean ± SEM of 7 observations. Different from benzylamine alone at ^∗ P < 0.05 and ^∗∗ P < 0.01.

[1] = Amplex Red-based fluorescence of 5 μM hydrogen peroxide without biological material; conditions: read-out: EC50 for lowering the fluorescent signal elicited by 5 μM hydrogen peroxide; without any human biological material, Amplex Red chromogenic mixture
Experimental: as §2
Figure 4 Influence of amine oxidase substrates or inhibitors and phenolic compounds on fluorescent-based detection of hydrogen peroxide. The chromogenic mixture used for Amplex Red-based fluorometric detection of hydrogen peroxide was incubated with 5 μM H2O2 alone (control set at 100%) or in the presence of the indicated final concentrations of tested chemicals. […] Means ± SEM of 7 measurements without any human material.

MAO-A = system: MAO-A; design: method as in PMID 19013512; conditions: at 10-100 μM, peroxidase-based detection of hydrogen peroxide; cited from earlier work
MAO [2] = test: Amplex Red fluorometric detection of tyramine-induced hydrogen peroxide release in human adipose tissue homogenates; assay type: biochemical; conditions: for effect on tyramine-induced H2O2 release: 1 mM tyramine, hAT homogenates, Amplex Red, inhibitors 1 μM to 1 mM
Experimental: as §1, §2

MAO [3] = test: Radiochemical assay of [14C]-tyramine oxidation by hAT homogenates; assay type: biochemical, human; conditions: 1 mM [14C]-tyramine, 30 min
Experimental: as §3
Figure 5 Influence of phenolic compounds and MAO inhibitors or SSAO inhibitors on tyramine oxidation by hAT. The production of radiolabelled aldehydes resulting from the 30 min incubation of fat tissue homogenates with 1 mM isotopic dilution of [^14C]-tyramine was set at 100% in the absence of added inhibitor, while the background radioactivity detected at t0 was set at 0%. (a) Inhibition by pargyline only of MAO-dependent tyramine oxidation. (b) Influence of phenolic compounds on tyramine oxidation. Each point is the mean ± SEM of 8 (inhibitors) to 12 (phenolic compounds) homogenates.

| Compound | EC50 [1] [µM] | effect on benzylamine-induced H2O2 release (SSAO) | effect on SSAO-mediated [14C]-benzylamine oxidation (SSAO/VAP-1) | effect on benzylamine-stimulated deoxyglucose uptake (human adipocytes) | effect on [14C]-tyramine oxidation (MAO [3]) | further results |
| --- | --- | --- | --- | --- | --- | --- |
| Oc1ccc(/C=C/c2cc(O)cc(O)c2)cc1 [resveratrol, trans-resveratrol] | – | abolished benzylamine-induced signal | without preventing benzylamine degradation | counteracted the effect of 1 mM benzylamine | – | – |
| NCc1ccccc1 [benzylamine, benzylamine hydrochloride] | – | – | – | – | – | effect on hydrogen peroxide production by hAT preparations (SSAO; 1 mM benzylamine as substrate, 30 min, versus basal): significantly increased the amount of detected hydrogen peroxide |
| C#CCN(C)Cc1ccccc1 [pargyline] | – | resistant | could not prevent this type of amine metabolism | – | inhibited | proportion of tyramine-induced H2O2 production left unaltered (MAO [2]; 1 mM pargyline alone or with 1 mM semicarbazide, 1 mM tyramine = 100%): approximately 30%; effect on tyramine-induced H2O2 release (MAO [2]): inhibited dose-dependently |
| NNC(N)=O [semicarbazide] | – | inhibited | eradicated the generation of labelled benzaldehyde | – | virtually unable to abolish this activity | effect on tyramine-induced H2O2 release (MAO [2]): totally inefficient; proportion of benzylamine-induced H2O2 signal left unaltered (SSAO; 1 mM semicarbazide alone or with 1 mM pargyline, 1 mM benzylamine = 100%): 20% and 15–20% |
| NCCc1ccc(O)cc1 [tyramine, tyramine hydrochloride] | – | – | – | – | – | effect on hydrogen peroxide production by hAT preparations (MAO [2]; 1 mM tyramine as substrate, 30 min, versus basal): to a lesser extent, significantly increased the amount of detected hydrogen peroxide |

Now from value to compound, other results behind:

| EC50 [1] [µM] | Compound | effect on benzylamine-induced H2O2 release (SSAO) | effect on SSAO-mediated [14C]-benzylamine oxidation (SSAO/VAP-1) | effect on benzylamine-stimulated deoxyglucose uptake (human adipocytes) | effect on [14C]-tyramine oxidation (MAO [3]) | further results |
| --- | --- | --- | --- | --- | --- | --- |
| 2 | O=c1c(O)c(-c2ccc(O)c(O)c2)oc2cc(O)cc(O)c12 [quercetin] | impaired partially the benzylamine-induced signal | without preventing benzylamine degradation | counteracted the effect of 1 mM benzylamine | – | MAO-A inhibition, in words (MAO-A): inhibit MAO-A in a complete manner |
| 3.5 | O=C(O)/C=C/c1ccc(O)c(O)c1 [caffeic acid] | abolished benzylamine-induced signal | without preventing benzylamine degradation | No clear-cut inhibition | did not abolish enzyme activity | – |
| 5.2 | COc1cc(/C=C/c2ccc(O)cc2)cc(OC)c1 [pterostilbene] | impaired partially the benzylamine-induced signal | without preventing benzylamine degradation | counteracted the effect of 1 mM benzylamine | did not abolish enzyme activity | – |
